Values joined by “and” are separate entries in the source; they are usually repeats but may differ in a detail not shown here. Equal entries are not always repeated.
How the values were obtained:
[1] = system: rat model with occlusion in the middle cerebral artery; assay: Effect (II) of reducing infarct volume in a rat model with occlusion in the middle cerebral artery (permanent occlusion); format: in vivo; settings: for Infarct volume in the cerebral cortex, Mean: from two hours after occlusion, 6 hours, 24 hours after occlusion
Method: Effect (II) of Reducing Infarct volume in a Rat Model with Occlusion in the Middle Cerebral Artery
The typical example of the compound of the present invention (the compound in Example 1) was compared with compounds disclosed in JP 8-508037-A (WO 94/25469, U.S. Pat. No. 5,750,525), which have affinity for AMPA receptors and is effective against cellular necrosis after ischemia in anoxia and hypocalcemia.
The compound of the present invention was dissolved in physiological saline to be adjusted to a dosage of 10 or 20 mg/kg/h just before use.
The control compound was dissolved in physiological saline to be adjusted to a dosage of 3 mg/kg/h just before use.
Occlusion in the middle cerebral artery was conducted according to the method described above. However, the middle cerebral artery was permanently occluded without removing the nylon embolus.
Two hours after the middle cerebral artery was occluded, a syringe containing the medium or the sample (10 or 20 mg/kg/h) was attached to a catheter for intravenous administration, and half (0.31 ml) of the dosage to be infused for 1 hour was intravenously administered for 1 minute. Thereafter, the medium or the sample was administered continuously for 6 hours at a rate of 0.616 ml/h by the use of a syringe pump for infusion. During administration and for 2 hours after administration was finished, the temperature of the rectum was maintained in the range of 37.0 to 38.5° C. in a system for controlling body temperature. After the body temperature control was finished, the animal was returned to a cage and maintained for 1 day in a breeding room.
Two hours after the middle cerebral artery was occluded, a syringe containing the medium or the sample (3 mg/kg/h) was attached to a catheter for intravenous administration, and the medium or the sample was administered continuously for 6 hours at a rate of 0.616 ml/h by means of the syringe pump for infusion. During administration and for 2 hours after administration was finished, the temperature of the rectum was maintained in the range of 37.0 to 38.5° C. in the system for controlling body temperature. After the body temperature control was finished, the animal was returned to a cage and maintained for 1 day in a breeding room.
The middle cerebral artery was permanently occluded by the nylon embolus, and the infarct volume was measured 24 hours after the occlusion was conducted.

mice in a formalin test = assay: Antalgic effect (II) on mice in a formalin test (comparison with morphine and indomethacin); format: in vivo; settings: for average left hind leg-licking time, Mean: formalin 5 minutes later
Method: Antalgic Effect (II) on Mice in a Formalin Test
The typical example of the compound of the present invention (the compound in Example 1) was compared with morphine and indomethacin in the same manner as in Pharmacological Experimental Example 5 above.
20.4 mg of the compound of the present invention was weighed, and 10.2 ml of 5.28% mannitol was added thereto to prepare 2 mg/ml (20 mg/kg) solution. Then, 3.8 ml of 5.28% mannitol was added to 3.8 ml of the 2 mg/ml solution to prepare 1 mg/ml (10 mg/kg) solution. Finally, 2.5 ml of 5.28% mannitol was added to 2.5 ml of the 1 mg/ml solution to prepare 0.5 mg/ml (5 mg/kg) solution. The test compound was weighed and prepared on the day when the experiment was conducted.
b-1) Morphine 17.0 mg of morphine purchased as a reagent was weighed, and 5.67 ml physiological saline was added thereto to form 3 mg/ml (30 mg/kg) solution. Then, 2.6 ml physiological saline was added to 1.3 ml of the 3 mg/ml solution to prepare 1 mg/ml (10 mg/kg) solution. Finally, 2.1 ml physiological saline was added to 0.9 ml of the 1 mg/ml solution to prepare 0.3 mg/ml (3 mg/kg) solution. The test compound was weighed and prepared on the day when the experiment was conducted.
12.9 mg of indomethacin purchased as a reagent was weighed, and 12.9 ml of 0.5% methyl cellulose (MC) was added thereto to form 1 mg/ml (10 mg/kg) suspension. Then, 2.24 ml of 0.5% MC was added to 0.96 ml of the 1 mg/ml suspension to prepare 0.3 mg/ml (3 mg/kg) suspension. Finally, 1.6 ml of 0.5% MC was added to 0.8 ml of the 0.3 mg/ml suspension to prepare 0.1 mg/ml (1 mg/kg) suspension. The test compound was weighed and prepared on the day when the experiment was conducted.
The treatment group by the compound of the present invention consisted of 4 groups in total, that is, a control group, a 5 mg/kg compound administration group, a 10 mg/kg compound administration group, and a 20 mg/kg compound administration group, and each group consisted of 5 animals.
The control group was given 0.1 ml of 5.28% mannitol per 10 g of the body weight via the tail vein. The compound of the present invention was administered via the tail vein at each concentration (0.5 mg/ml, 1 mg/ml, and 2 mg/ml) in an volume of 0.1 ml per 10 g of the body weight into the 5 mg/kg group, 10 mg/kg group and 20 mg/kg group, respectively.
The treatment group by morphine consisted of 4 groups in total, that is, a control group, a 3 mg/kg morphine administration group, a 10 mg/kg morphine administration group, and a 30 mg/kg morphine administration group, and each group consisted of 5 animals.
The control group was orally given 0.1 ml of physiological saline per 10 g of the body weight. Morphine was orally administered at each concentration (0.3 mg/ml, 1 mg/ml, and 3 mg/ml) in a volume of 0.1 ml per 10 g of the body weight into the 3 mg/kg group, 10 mg/kg group and 30 mg/kg group, respectively.
The treatment group by indomethacin consisted of 4 groups in total, that is, a control group, a 1 mg/kg indomethacin administration group, a 3 mg/kg indomethacin administration group, and a 10 mg/kg indomethacin administration group, and each group consisted of 5 animals.
The control group was orally given 0.1 ml of 0.5% MC per 10 g of the body weight. Indomethacin was orally administered at each concentration (0.1 mg/ml, […], and 1 mg/ml) in a volume of 0.1 ml per 10 g of the body weight into the 1 mg/kg group, 3 mg/kg group and 10 mg/kg group, respectively.
5.28% mannitol was administered via the tail vein into each group given the compound of the present invention or into the control group, and the animals were placed in a transparent plastic observation cage. 5 minutes later, 20 μl of 3% formalin was subcutaneously administered into the bottom of the left hind leg of each mouse. The duration of the behavior of mouse's licking the left hind leg after administration of formalin was measured for 5 minutes and used as an indication of pain. The duration was expressed in second. […]

CC(C)C(C#N)(CCCN1CCN(CCOc2ccc(F)cc2)CC1)c1ccccc1 (centres unmarked) [Example 1, 1-[(4-Cyano-5-methyl-4-phenyl)hexyl]-4-[2-(4-fluorophenoxy)ethyl]piperazine]
degree of reduction of the infarct volume ([1]; 10 mg/kg/h i.v.): 15%
Infarct volume in the cerebral cortex, Mean ([1]; 10 mg/kg/h i.v. (table: 10 mg/kg)): 260.7±13.1 mm^3 and 260.7 mm^3
degree of reduction of the infarct volume ([1]; 20 mg/kg/h i.v.): 30%
Infarct volume in the cerebral cortex, Mean ([1]; 20 mg/kg/h i.v. (table: 20 mg/kg)): 215.4±21.3 mm^3 and 215.4 mm^3
average left hind leg-licking time, Mean (mice in a formalin test; 5 mg/kg i.v. (tail vein)): 49.4 s
average left hind leg-licking time, Mean (mice in a formalin test; 10 mg/kg i.v. (tail vein)): 23.6 s
average left hind leg-licking time, Mean (mice in a formalin test; 20 mg/kg i.v. (tail vein)): 2.2 s
antalgic effect in the formalin test (mice in a formalin test; overall conclusion of the comparison): excellent effect similar to that of morphine
